In one assay the target is rat dorsal aorta (Rattus norvegicus, UniProt P22002). Kind of assay: cell-based. The following applies: read-out: Calcium Entry Blockade (pA2) (converted). An excerpt: Calcium ion entry blockade was studied in various smooth muscle systems such as rat dorsal aorta, portal vein, and trachea.
The subject of assay [1] is globally ischemic rat myocardium. Kind of assay: Autolysis: protection of high energy phosphate stores in globally ischemic rat myocardium. The following applies: for Autolysis (% Protection): protection of high energy phosphate stores in globally ischemic rat myocardium. Set-up: Autolysis (% Protection): concentration or dose not given beside the values.
Where [2] appears, read: pA2 = negative log of molar antagonist concentration giving dose ratio of 2, active if 7 or greater.

Where a name gives a salt, the structure may show the parent alone. Read-outs that look alike come from different tables or passages of the source.

Sequence of rat dorsal aorta (P22002 whole entry): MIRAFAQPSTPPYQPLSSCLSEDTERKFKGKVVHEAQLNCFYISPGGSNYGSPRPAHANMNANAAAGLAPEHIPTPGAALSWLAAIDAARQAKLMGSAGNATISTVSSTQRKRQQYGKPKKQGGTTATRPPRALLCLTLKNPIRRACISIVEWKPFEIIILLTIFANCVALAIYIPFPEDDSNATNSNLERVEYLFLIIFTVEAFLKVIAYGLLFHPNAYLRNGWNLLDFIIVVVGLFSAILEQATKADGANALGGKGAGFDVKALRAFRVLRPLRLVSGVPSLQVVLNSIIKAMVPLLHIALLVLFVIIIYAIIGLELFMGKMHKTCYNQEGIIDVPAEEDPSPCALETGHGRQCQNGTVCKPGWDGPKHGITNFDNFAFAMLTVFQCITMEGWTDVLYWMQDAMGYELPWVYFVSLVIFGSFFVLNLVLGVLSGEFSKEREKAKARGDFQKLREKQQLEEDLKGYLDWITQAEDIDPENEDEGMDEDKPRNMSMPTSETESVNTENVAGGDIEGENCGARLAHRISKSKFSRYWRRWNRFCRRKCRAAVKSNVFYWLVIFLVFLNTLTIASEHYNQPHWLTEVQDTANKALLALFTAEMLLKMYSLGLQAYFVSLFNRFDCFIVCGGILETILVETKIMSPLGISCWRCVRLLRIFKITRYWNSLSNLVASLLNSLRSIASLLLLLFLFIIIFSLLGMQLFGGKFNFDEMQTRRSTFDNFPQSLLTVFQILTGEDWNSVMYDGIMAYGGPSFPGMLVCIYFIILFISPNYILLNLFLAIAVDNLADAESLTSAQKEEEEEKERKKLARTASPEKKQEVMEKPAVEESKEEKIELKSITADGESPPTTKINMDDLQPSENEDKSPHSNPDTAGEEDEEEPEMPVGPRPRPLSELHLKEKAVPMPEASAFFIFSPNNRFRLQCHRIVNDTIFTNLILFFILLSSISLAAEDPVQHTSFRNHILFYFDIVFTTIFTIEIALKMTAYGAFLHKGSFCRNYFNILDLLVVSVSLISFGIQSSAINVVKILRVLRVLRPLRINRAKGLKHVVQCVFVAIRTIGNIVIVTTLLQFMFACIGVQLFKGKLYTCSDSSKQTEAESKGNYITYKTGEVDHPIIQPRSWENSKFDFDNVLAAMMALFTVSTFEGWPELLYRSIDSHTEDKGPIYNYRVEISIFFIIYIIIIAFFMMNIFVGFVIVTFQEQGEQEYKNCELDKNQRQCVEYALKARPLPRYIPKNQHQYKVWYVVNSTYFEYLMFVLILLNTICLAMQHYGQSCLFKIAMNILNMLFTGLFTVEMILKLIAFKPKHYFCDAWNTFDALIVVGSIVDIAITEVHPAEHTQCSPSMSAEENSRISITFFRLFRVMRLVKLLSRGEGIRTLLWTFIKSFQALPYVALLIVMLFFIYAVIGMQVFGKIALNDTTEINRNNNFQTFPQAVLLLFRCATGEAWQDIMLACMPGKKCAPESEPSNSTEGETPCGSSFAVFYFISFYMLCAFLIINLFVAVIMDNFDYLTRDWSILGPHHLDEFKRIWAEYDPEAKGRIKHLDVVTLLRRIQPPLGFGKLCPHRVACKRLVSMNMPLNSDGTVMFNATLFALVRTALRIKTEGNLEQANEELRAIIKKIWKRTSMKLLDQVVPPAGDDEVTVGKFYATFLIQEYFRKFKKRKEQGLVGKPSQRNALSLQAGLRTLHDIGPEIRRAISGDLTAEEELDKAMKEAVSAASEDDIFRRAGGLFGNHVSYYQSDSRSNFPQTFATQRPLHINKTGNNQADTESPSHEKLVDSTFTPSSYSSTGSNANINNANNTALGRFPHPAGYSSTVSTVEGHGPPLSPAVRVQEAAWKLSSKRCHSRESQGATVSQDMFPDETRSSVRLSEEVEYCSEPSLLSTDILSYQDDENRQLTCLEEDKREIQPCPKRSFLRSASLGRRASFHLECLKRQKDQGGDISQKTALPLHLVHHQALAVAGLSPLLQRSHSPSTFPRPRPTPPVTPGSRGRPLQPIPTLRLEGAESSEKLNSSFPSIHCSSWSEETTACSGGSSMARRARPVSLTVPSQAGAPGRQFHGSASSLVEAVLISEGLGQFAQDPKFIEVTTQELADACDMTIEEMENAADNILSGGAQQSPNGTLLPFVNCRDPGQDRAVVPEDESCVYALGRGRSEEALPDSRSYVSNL
Sequence of rat dorsal aorta (P54290 25-944 partner limits assumed): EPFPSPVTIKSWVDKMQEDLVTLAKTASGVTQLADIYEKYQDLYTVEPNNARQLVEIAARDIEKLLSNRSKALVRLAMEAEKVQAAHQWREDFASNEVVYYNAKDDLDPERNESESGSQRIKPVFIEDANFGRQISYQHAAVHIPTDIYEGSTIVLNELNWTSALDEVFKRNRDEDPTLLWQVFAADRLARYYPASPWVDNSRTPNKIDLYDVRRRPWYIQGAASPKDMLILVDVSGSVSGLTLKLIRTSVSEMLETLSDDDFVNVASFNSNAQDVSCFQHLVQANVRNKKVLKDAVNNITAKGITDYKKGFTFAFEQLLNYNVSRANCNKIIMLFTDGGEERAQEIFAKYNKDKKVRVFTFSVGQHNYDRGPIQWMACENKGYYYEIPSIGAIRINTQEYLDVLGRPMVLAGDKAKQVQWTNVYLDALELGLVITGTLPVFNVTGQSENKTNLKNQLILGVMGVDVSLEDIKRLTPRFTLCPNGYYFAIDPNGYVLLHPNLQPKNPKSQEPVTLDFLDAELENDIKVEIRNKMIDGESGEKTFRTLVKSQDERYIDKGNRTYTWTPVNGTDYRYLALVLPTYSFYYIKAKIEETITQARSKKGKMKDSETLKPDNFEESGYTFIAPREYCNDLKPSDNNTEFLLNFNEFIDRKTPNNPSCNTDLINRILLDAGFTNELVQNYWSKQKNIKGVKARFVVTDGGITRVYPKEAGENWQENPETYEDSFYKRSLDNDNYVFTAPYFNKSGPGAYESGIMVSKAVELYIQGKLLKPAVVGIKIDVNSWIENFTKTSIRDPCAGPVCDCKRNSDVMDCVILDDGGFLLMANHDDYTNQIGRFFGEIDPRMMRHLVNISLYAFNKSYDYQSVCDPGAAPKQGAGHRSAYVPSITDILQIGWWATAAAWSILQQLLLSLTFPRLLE
Sequence of rat dorsal aorta (P54290 945-1091 partner limits assumed): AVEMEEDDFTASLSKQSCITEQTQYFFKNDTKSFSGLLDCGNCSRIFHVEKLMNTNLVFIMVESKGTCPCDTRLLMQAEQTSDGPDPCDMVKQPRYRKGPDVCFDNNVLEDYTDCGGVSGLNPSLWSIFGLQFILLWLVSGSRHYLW

On to `COC(=O)C1=C(C)NC(C)=C(C(=O)OCCCN(C)CCN(C)c2ccccc2)C1c1cccc([N+](=O)[O-])c1` (centres unmarked) [Example 36], for which the Kb at rat dorsal aorta (setting [2]) is 0.126 nM. The “Autolysis (% Protection)” value in assay [1] is 12%.

`COC(=O)C1=C(C)NC(C)=C(C(=O)OC)C1c1ccccc1[N+](=O)[O-]` [Nifedipine, 4-(2'-nitrophenyl)-2,6-dimethyl-3,5-dicarbomethoxy-1,4-dihydropyridine, reference compound]: in assay [1], the “Autolysis (% Protection)” value is reported as 21%. For `COC(=O)C1=C(C)NC(C)=C(C(=O)OCCCN(C)CCNc2ccccc2)C1c1cccc([N+](=O)[O-])c1` (centres unmarked) [Example 37], the Kb at rat dorsal aorta (setting [2]) was 0.129 nM. The “Autolysis (% Protection)” value in assay [1] is 23%. The corresponding values for `COC(=O)C1=C(C)NC(C)=C(C(=O)OCCCN(C)CCSc2ccc(C(C)(C)C)cc2C)C1c1cccc([N+](=O)[O-])c1` (centres unmarked) [Example 39] are 14.5 nM and 51%. For the compound `COC(=O)C1=C(C)NC(C)=C(C(=O)OCCCN(CCSc2ccccc2)Cc2ccccc2)C1c1cccc([N+](=O)[O-])c1.Cl` (centres unmarked) [Example 46, Methyl [3-[N-(Phenylmethyl)-N-[2-(phenylthio)ethyl]amino]propyl] 1,4-Dihydro-2,6-dimethyl-4-(3-nitrophenyl)-3,5-pyridinedicarboxylate Hydrochloride], at rat dorsal aorta ([…], active if 7 or greater), the Kb was 5.62 nM. The “Autolysis (% Protection)” value in assay [1] was 3%. On to `COC(=O)C1=C(C)NC(C)=C(C(=O)OCCN(C)Cc2ccccc2)C1c1cccc([N+](=O)[O-])c1` (centres unmarked) [Nicardipine, reference compound], for which the Kb at rat dorsal aorta (setting [2]) was 1.12 nM. Also, the “anti-ischemia action / protection against autolysis caused by ischemia” value in assay [1] (in words, in vitro and in vivo laboratory tests) is listed as “fails to provide any protection against autolysis caused by ischemia”. For the same compound, the “Autolysis (% Protection)” value in assay [1] was determined as 0%. As to `COC(=O)C1=C(C)NC(C)=C(C(=O)OCCCN(C)CCN(Cc2ccccc2)c2ccccc2)C1c1cccc([N+](=O)[O-])c1` (centres unmarked) [Example 38], in assay [1], the “Autolysis (% Protection)” value turned out to be 16%. Turning to `COC(=O)C1=C(C)NC(C)=C(C(=O)OCCCNCCOc2ccccc2)C1c1cccc([N+](=O)[O-])c1` (centres unmarked) [Example 35], the Kb at rat dorsal aorta (setting [2]) is 0.468 nM. Further, the “Autolysis (% Protection)” value in assay [1] was 21%.

Regarding `COC(=O)C1=C(C)NC(C)=C(C(=O)OCCCN(CCN(C)c2ccccc2)Cc2ccccc2)C1c1cccc([N+](=O)[O-])c1` (centres unmarked) [Example 45, [3-[[[2-(N-Methyl-N-phenyl)amino]ethyl]-N'-phenylmethyl]propyl]Methyl 1,4-Dihydro-2,6-dimethyl-4-(3-nitrophenyl)-3,5-pyridinedicarboxylate Dihydrochloride Sesquihydrate], at rat dorsal aorta (setting [2]), the Kb was 0.794 nM. Regarding `CCCCN(CCCOC(=O)C1=C(C)NC(C)=C(C(=O)OC)C1c1cccc([N+](=O)[O-])c1)CCOc1ccccc1` (centres unmarked) [Example 44, [3-[[N-Butyl-N-(2-phenoxyethyl)]amino]propyl]Methyl 1,4-Dihydro-2,6-dimethyl-4-(3-nitrophenyl)-3,5-pyridinedicarboxylate Hydrochloride Hemihydrate], on rat dorsal aorta (setting [2]), the Kb is 0.933 nM. Moreover, the “Autolysis (% Protection)” value in assay [1] came to 16%. Turning to `COC(=O)C1=C(C)NC(C)=C(C(=O)OCCCNCCSc2ccccc2)C1c1cccc([N+](=O)[O-])c1` (centres unmarked) [Example 42], at rat dorsal aorta (setting [2]), the Kb was 8.32 nM.

Turning to `COC(=O)C1=C(C)NC(C)=C(C(=O)OCCCN(C)CCCSc2ccccc2)C1c1cccc([N+](=O)[O-])c1` (centres unmarked) [Example 40], the Kb on rat dorsal aorta (setting [2]) was 3.63 nM. For the same compound, the “Autolysis (% Protection)” value in assay [1] is on record as 23%. The corresponding values for `COC(=O)C1=C(C)NC(C)=C(C(=O)OCCCN(C)CC[S+]([O-])c2ccccc2)C1c1cccc([N+](=O)[O-])c1` (centres unmarked) [Example 47, Methyl [3-[N-Methyl-N-[2-phenylsulfinyl)ethyl]amino]propyl] 1,4-Dihydro-2,6-dimethyl-4-(3-nitrophenyl)-3,5-pyridinedicarboxylate Hydrochloride Hydrate] are 0.251 nM and 21%. With `COC(=O)C1=C(C)NC(C)=C(C(=O)OCCCN(C)CCSc2ccccc2)C1c1cccc([N+](=O)[O-])c1.Cl` (centres unmarked) [Example 34, Methyl [3-[N-Methyl-N-[2-(phenylthio)ethyl]amino]propyl] 1,4-Dihydro-2,6-dimethyl-4-(3-nitrophenyl)-3,5-pyridinedicarboxylate Hydrochloride], at rat dorsal aorta ([…], active if 7 or greater), the Kb was 0.126 nM. Besides, the “Autolysis (% Protection)” value in assay [1] is 43%.

As for `COC(=O)C1=C(C)NC(C)=C(C(=O)OCCCN(C)CCSc2ccccc2OC)C1c1cccc([N+](=O)[O-])c1` (centres unmarked) [Example 41], on rat dorsal aorta (setting [2]), the Kb is 2.75 nM.

For `COC(=O)C1=C(C)NC(C)=C(C(=O)OCCCN(CCSc2ccccc2)CCSc2ccccc2)C1c1cccc([N+](=O)[O-])c1` (centres unmarked) [Example 43], the Kb at rat dorsal aorta (setting [2]) is 2.4 nM. The “Autolysis (% Protection)” value in assay [1] stood at 2%. The corresponding values for `COC(=O)C1=C(C)NC(C)=C(C(=O)OCCCNCCNc2ccccc2)C1c1cccc([N+](=O)[O-])c1` (centres unmarked) [Example 32] are 2.95 nM and 0%. The corresponding values for `COC(=O)C1=C(C)NC(C)=C(C(=O)OCCCNCCc2c[nH]c3ccccc23)C1c1cccc([N+](=O)[O-])c1` (centres unmarked) [Example 33] are 0.0316 nM and 35%.
